System: HEK293T cells
Assay: Flow cytometry (CFlow): delivery of FAM-labeled single-stranded PGY-sRNA-6 into HEK293T cells by different concentrations of single sphingosine derivative (Example 1)
Assay type: cell-based, human
Conditions: for delivery of single-stranded PGY-sRNA-6 into 293T cells (fluorescence shift compared to free uptake group): different concentrations: 3.75, 12.5, 37.5 μg single lipid, 0.1 nmol FAM-labeled sRNA, final 100 nM, 9 hours, flow cytometry; for Lipid delivery group (different concentrations of lipids) 3.75 μg/mL: single sphingosine derivative 3.75 μg/mL; for Lipid delivery group (different concentrations of lipids) 3.75 μg/mL / Lipid delivery group (different concentrations of lipids) 12.5 μg/mL / Lipid delivery group (different concentrations of lipids) 37.5 μg/mL: FAM-labeled PGY-ssRNA-6 100 nM, 293T cells, fluorescence shift by flow cytometry; for Lipid delivery group (different concentrations of lipids) 12.5 μg/mL: single sphingosine derivative 12.5 μg/mL; for Lipid delivery group (different concentrations of lipids) 37.5 μg/mL: single sphingosine derivative 37.5 μg/mL
Experimental: 2.1 5 μl of small RNA (Ribobio, 20 μM, as shown in Table 2) and 95 μL of DEPC (Sigma) treated water were added into a 1.5 ml EP tube and mixed well. Then a certain amount of single lipid or lipid composition in chloroform solution (as shown in Table 1) was added and fully mixed by sucking and blowing;
2.2 The system was fully mixed and was heated in a water bath at 90° C. for 15 minutes;
2.3 The system was taken out and cooled down to room temperature.
4.3 The human embryonic kidney cell line HEK293T and human monocyte THP-1 cells used in the experiment were cultured to logarithmic growth phase, and then plated into 12-well plates with a cell density of 6×10^5/1 mL medium/well. The 12-well plate (1 mL medium/well) was incubated overnight (12 h) at 37° C., followed by subsequent experiments.
4.4 The experiment groups were as follows: • 1) Naïve group: untreated cells. This group served as a blank control group. • 2) Free uptake group: […] of 5′-FAM labeled small RNA solution (storage concentration is 20 μM) was directly added. This group served as a negative control group; • 3) Lipid nucleic acid mixture treatment group: The mixture of the lipid prepared in step 2 and the 5′-FAM-labeled small RNA was added into the cells and mixed well. The final concentration of small RNA is 100 nM.
4.5 After co-incubation with cells for 6 h/9 h, the cells were washed three times with PBS. The cells were re-suspended with PBS (self-prepared). The flow cytometer Accuri® C6 instrument (purchased from BD, US) was used to detect the fluorescence intensity of the cells in the sample wells. Implementation method: the software CFlow Plus used in the flow cytometer Accuri® C6 instrument detection was opened, the instrument was washed with cleaning solution for 3 minutes, and then washed with double-distilled water for 5 minutes. The injection of blank group samples was started while setting the number of cells unlimited. The injection of Naïve group samples was stopped when the number of cells detected was 10000 events. The live cell group in the fluorescence spectrum (abscissa: FSC-A, ordinate: SSC-A) was circled as gate P1. With the number of cells set as limited, the detection was stopped when the number of cells in gate P1 reached 10000 events. The fluorescence shift value was obtained in the fluorescence spectrum (abscissa: fluorescence channel FLA-1, ordinate: SSC-A).
1) Conditions of the boiling method: to 100 μL FAM-labeled single-stranded PGY-sRNA-6 solution was added corresponding amount of lipid solution, and heated at 90° C. for 15 min;
2) Experimental conditions: the final concentration of small RNA was 100 nM. 9 hours after being added to the cells, the amount of single-stranded PGY-sRNA-6 that entered into the cells was compared by detecting the fluorescence shift using flow cytometry technology. For the detailed protocols, see “Flow cytometry technology (CFlow) determined the uptake amount of nucleic acid that is delivered into cells by lipid”. All experiments were performed in triplicates.

| Structure (SMILES) | delivery of single-stranded PGY-sRNA-6 into 293T cells (fluorescence shift compared to free uptake group) | Lipid delivery group (different concentrations of lipids) 3.75 μg/mL | Lipid delivery group (different concentrations of lipids) 12.5 μg/mL | Lipid delivery group (different concentrations of lipids) 37.5 μg/mL |
| --- | --- | --- | --- | --- |
| CCCCCCCCCCCCCCCC(=O)N[C@@H](CO)[C@H](O)CCCCCCCCCCCCCCC [So-10, N-hexadecanoyl-D-erythro-Dihydrosphingosine] | deliver | 2.10% | 3.40% | 2.50% |
| CCCCCCCCCCCCC/C=C/[C@@H](O)[C@H](CO)NC(=O)CCCCCNC(=O)CCCC[C@@H]1SC[C@@H]2NC(=O)N[C@@H]21 [So-3, N-hexanoyl-biotin-D-erythro-Sphingosine] | deliver | 1.40% | 2.10% | 3.40% |
| CCCCCCCCCCCCCCCCCC(=O)N[C@@H](CO)[C@H](O)CCCCCCCCCCCCCCC [So-9, N-octadecanoyl-D-erythro-Dihydrosphingosine] | deliver | 3.30% | 2.60% | 2.70% |
| CCCCCCCCCCCCCC[C@@H](O)[C@@H](O)[C@@H](N)CO [So-63, 2S-amino-1,3S,4R-octadecanetriol] | deliver | 5.60% | 7.70% | 6.50% |
| CCCCCCCCCCCCC/C=C/[C@@H](O)[C@H](CO[C@@H]1O[C@H](CO)[C@H](O)[C@H](O)[C@H]1O)NC(=O)CCCCCCCCCCCCCC [So-61, N-[(1S,2R,3E)-1-[(β-D-galactopyranosyloxy)methy1]-2-hydroxy-3-heptadecen-1-yl]-pentadecanamide] | deliver | 7.40% | 8.10% | 7.00% |
| CCCCCCCCCCCCC/C=C/[C@@H](O)[C@@H](N)COP(=O)(O)O [So-5, Sphingosine-1-Phosphoric Acid] | deliver | 2.80% | 1.60% | 2.40% |
| CCCCCCCCCCCCC/C=C/[C@@H](O)[C@H](CO)NC(=O)CCCCCCCCCCCCCCCCCC [So-65, N-[(1S,2R,3E)-2-hydroxy-1-(hydroxymethyl)-3-heptadecen-1-yl]-nonadecanamide] | deliver | 7.60% | 7.50% | 6.80% |
| CCCCCCCCCCCCCC[C@@H](O)[C@@H](N)COP(=O)(O)O [So-15, dihydro-D-erythro-Sphingosine-C17-1-phosphate] | deliver | 4.70% | 1.90% | 2.40% |
| [2H]C([2H])([2H])C([2H])([2H])C([2H])([2H])C([2H])([2H])CCCCCCCCC/C=C/[C@@H](O)[C@@H](N)CO [So-74, (2S,3R,E)-aminooctadec-4-ene-15,15,16,16,17,17,18,18,18-d9-1,3-diol] | deliver | 4.00% | 3.10% | 6.60% |
| CCCCCCCCCCCCCCC[C@@H](O)[C@H](CO)NC(=O)CCCCCCC [So-12, N-octanoyl-D-erythro-Dihydrosphingosine] | deliver | 5.60% | 2.30% | 1.60% |
| CCCCCCCCCCCCC/C=C/[C@@H](O)[C@H](CO)NC(=O)CCCCCCCCCCC [So-13, N-Lauroyl-D-erythro-Sphingosine] | deliver | 3.40% | 3.20% | 5.20% |
| CCCCCCCCCCCCC/C=C/[C@@H](O)[C@H](CO)NC(=O)CCCCCCCCCCCCCCCCCCCCCCCCCCCCCO [So-14, ω-hydroxy-C30 Sphingosine (d18:1/30:0)] | deliver | 4.40% | 3.30% | 4.30% |
| CCCCCCCCCC/C=C/[C@@H](O)[C@@H](N)CO [So-73, 2S-amino-4E-pentadecene-1,3R-diol] | deliver | 3.20% | 4.60% | 9.50% |
| CCCCCCCCCCCCCC[C@@H](O)[C@@H](O)[C@H](CO)NC(=O)CCCCC [So-67, N-[(1S,2S,3R)-2,3-dihydroxy-1-(hydroxymethyl)heptadecyl]-hexanamide] | deliver | 6.30% | 5.30% | 2.80% |
| CC(C)CCCCCCCCCCC[C@@H](O)[C@@H](N)CO [So-75, 1,3-Hexadecanediol, 2-amino-15-methyl-, D-erythro-] | deliver | 3.00% | 4.20% | 11.40% |
| CCCCCCCCCCCCCCCCCC(=O)N[C@@H](CO)[C@H](O)[C@H](O)CCCCCCCCCCCCCC [So-69, N-[(1S,2S,3R)-2,3-dihydroxy-1-(hydroxymethyl)heptadecyl]-octadecanamide] | deliver | 4.60% | 3.80% | 3.30% |
| CCC/C=C\CCCCCCCCCC[C@@H](O)[C@H](C)N [So-7, 14Z-1-Deoxysphingosine (d18:1)] | deliver | 1.20% | 0.20% | 4.30% |
| CCCCCCCCCCCC/C=C/[C@@H](O)[C@@H](N)CO [So-53, D-erythro-Sphingosine C-17] | deliver | 0.20% | 0.30% | 6.70% |

— patent publication US11974969B2, “Artificially synthesized sphingosine derivative lipoid monomer and use of same for delivering nucleic acid” (INSTITUTE OF BASIC MEDICAL SCIENCES CHINESE ACADEMY OF …, priority 2018, dated 2024)
